Key:
[1] = Stability in blood plasma, mouse; type: in vitro ADME; settings: for Content, % from the initial, Mean (n = 2): mouse blood plasma, 1 μM, 37° C.
Procedure: (§1) Compound 1 at a concentration of 1 μM was incubated for 24 hours in the blood plasma of human and various animal species (rats, mice, guinea pigs, rabbits, horses, dogs, bull, pygmy hogs) at 37° C. Aliquots were taken at time points of 0, 0.25, 1, 2, 4, 8 and 24 hours. In the case of blood plasma of rabbits and monkeys, Compound 1 was incubated for 4 hours, and aliquots were taken at time points 0, 0.25, 1, 4. After the protein precipitation with acetonitrile, samples were analyzed by HPLC-MS/MS to determine the concentration of Compound 1. Verapamil was used as a stable control.

[2] = Stability in blood plasma, guinea pig; type: in vitro ADME; settings: for Content, % from the initial, Mean (n = 2): guinea pig blood plasma, 1 μM, 37° C.
Procedure: as §1

[3] = system: imiquimod-induced ear psoriasis; test: Mouse model of imiquimod-induced ear psoriasis; type: in vivo, female balb/c mice; settings: for The gain in the thickness of the right (affected) ear relatively day 0: 0.3% ointment, M ± m, n = 10
Procedure: Psoriasis was simulated in female balb/c mice by applying Aldar cream (5% imiquimod) on the inner side of the right ear daily 1 time per day for 10 days (J Immunol. 2009 May 1; 182(9):5836-45). Vaseline was applied to intact animals: 20 mg on the right ear.
The assessment of the development of pathology was performed on 2nd, 4th, 6th, 8th and 10th day before the next application of Aldar cream by measuring the thickness of the left and right ears.

[4] = biological target: T1, melanocortin receptor MC4R (Homo sapiens, UniProt P32245); test: Activity of melanocortin receptors MC4R, CHO cells; type: cell-based; settings: antagonist, NDP-alpha-MSH agonist (30 nM)
T1 construct: expressed in transfected cells; host or cells: CHO cells
T1 sequence (P32245 whole entry): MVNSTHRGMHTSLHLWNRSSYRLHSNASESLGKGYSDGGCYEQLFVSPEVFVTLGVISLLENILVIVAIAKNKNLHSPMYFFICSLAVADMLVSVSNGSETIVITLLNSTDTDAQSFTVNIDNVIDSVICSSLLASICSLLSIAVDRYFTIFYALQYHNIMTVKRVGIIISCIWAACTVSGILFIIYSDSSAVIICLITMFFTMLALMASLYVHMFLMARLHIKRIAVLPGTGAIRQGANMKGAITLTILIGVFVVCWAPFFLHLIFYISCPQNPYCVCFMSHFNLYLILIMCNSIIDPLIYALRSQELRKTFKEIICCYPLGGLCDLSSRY
Procedure: (§2) Compound 1 was dissolved in DMSO to a concentration of 100 mM; then a stock solution was serially diluted with DMSO. The maximum starting concentration of the substance is 100 μM. The effect was determined at 5 concentrations of the tested compounds, each concentration was studied twice. CHO cells expressing a melanocortin receptor MC4R were used in the experiment, these cells, after preincubation with a NDP-alpha-MSH agonist (30 nM), were incubated with the test compound. The activity of receptors was determined according to the intracellular calcium concentration by the homogeneous time resolved fluorescence spectroscopy.

[5] = Stability in blood plasma, pygmy hog; type: in vitro ADME; settings: 1 μM, 37° C.
Procedure: as §1

[6] = biological target: T2, human recombinant cathepsin S (Homo sapiens, UniProt P25774); test: Effect on the enzymatic activity of cathepsin S; type: biochemical; settings: inhibitor; preincubated 15 minutes at 37° C.; substrate Z-Phe-Arg-AMC (6 μM)
T2 construct: host or cells: E. coli
T2 sequence (P25774 115-331): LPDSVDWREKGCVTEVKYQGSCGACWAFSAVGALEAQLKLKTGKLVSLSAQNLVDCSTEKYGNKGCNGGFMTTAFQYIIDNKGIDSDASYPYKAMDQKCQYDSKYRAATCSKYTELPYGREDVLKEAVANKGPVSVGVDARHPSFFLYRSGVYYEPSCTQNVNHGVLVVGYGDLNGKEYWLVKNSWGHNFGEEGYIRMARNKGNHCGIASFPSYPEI
Procedure: Compound 1 was dissolved in DMSO to a concentration of 100 mM; then a stock solution was serially diluted with DMSO. The maximum starting concentration of the substance is 100 μM. The effect was determined at 5 concentrations of the tested compounds, each concentration was studied twice. A human recombinant cathepsin S, expressed in E. coli was used in the experiment. Test compounds were preincubated for 15 minutes at 37° C. with an enzyme whose activity was determined by the rate of transformation of the substrate Z-Phe-Arg-AMC (6 μM) by the fluorescence spectroscopy (Protein Sci. 1996 April; 5(4):789-91).

[7] = biological target: T3, prokineticin receptor type 1 (PK1) (Homo sapiens, UniProt Q8TCW9); test: Activity of prokineticin receptors type 1 (PK1), intracellular calcium, HEK-293 cells; type: cell-based; settings: antagonist, PK1 agonist (3 nM)
T3 construct: expressed in transfected cells; host or cells: HEK-293 cells
T3 sequence (Q8TCW9 whole entry): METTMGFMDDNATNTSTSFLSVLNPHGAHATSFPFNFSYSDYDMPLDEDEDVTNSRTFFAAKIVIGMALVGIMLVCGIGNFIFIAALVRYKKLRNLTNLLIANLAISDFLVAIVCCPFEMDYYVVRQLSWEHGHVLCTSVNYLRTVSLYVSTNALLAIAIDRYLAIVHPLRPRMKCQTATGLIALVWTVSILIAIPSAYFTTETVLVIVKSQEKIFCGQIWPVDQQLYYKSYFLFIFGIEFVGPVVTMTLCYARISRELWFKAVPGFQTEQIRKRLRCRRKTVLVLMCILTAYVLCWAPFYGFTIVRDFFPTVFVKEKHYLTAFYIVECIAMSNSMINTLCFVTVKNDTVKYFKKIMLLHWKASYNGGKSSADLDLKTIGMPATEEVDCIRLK
Procedure: as §2, with “HEK-293” for “CHO”, “prokineticin receptors PK1” for “a melanocortin receptor MC4R”, “PK1” for “NDP-alpha-MSH”, “(3” for “(30”, “the” for “the homogeneous time resolved”, “spectroscopy (Mol Pharmacol. 2005 June; 67(6):2070-6).” for “spectroscopy.”

[8] = biological target: T4, cannabinoid receptor type 1 (CB1R) (Homo sapiens, UniProt P21554); test: Activity of cannabinoid receptor type 1, CHO cells expressing CB1R; type: cell-based; settings: agonist, control CP55940 (30 nM)
T4 construct: expressed in transfected cells; host or cells: CHO cells
T4 sequence (P21554 whole entry): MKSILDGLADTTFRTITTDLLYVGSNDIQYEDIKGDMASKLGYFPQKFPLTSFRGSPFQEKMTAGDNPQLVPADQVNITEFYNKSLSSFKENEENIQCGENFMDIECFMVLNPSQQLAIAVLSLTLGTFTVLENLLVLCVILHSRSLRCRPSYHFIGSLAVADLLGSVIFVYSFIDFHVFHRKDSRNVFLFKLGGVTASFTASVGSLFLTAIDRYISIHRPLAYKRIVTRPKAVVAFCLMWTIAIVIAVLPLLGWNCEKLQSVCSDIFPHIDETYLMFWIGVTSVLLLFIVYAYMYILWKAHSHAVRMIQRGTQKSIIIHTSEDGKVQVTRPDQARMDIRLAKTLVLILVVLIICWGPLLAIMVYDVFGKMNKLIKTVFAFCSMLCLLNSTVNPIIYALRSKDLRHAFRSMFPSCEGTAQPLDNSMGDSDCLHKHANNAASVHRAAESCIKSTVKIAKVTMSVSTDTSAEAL
Procedure: Compound 1 was dissolved in DMSO to a concentration of 100 mM; then the stock solution was serially diluted with DMSO. The maximum starting concentration of the substance is 100 μM. The effect was determined at 5 concentrations of the tested compounds, each concentration was studied twice. CHO cells expressing CB1R were used in the experiment, these cells were incubated with the test compound. CP55940 (30 nM) compound was used as the control. The activity of receptors was determined by the intracellular calcium concentration by the homogeneous time resolved fluorescence spectroscopy (Mol Pharmacol. 1995 September; 48(3):443-50).

[9] = Stability in blood plasma, rabbit; type: in vitro ADME; settings: for Content, % from the initial, Mean (n = 2): rabbit blood plasma, 1 μM, 37° C.
Procedure: as §1

[10] = biological target: T5, serotonin receptors 5-HT2B (Homo sapiens, UniProt P41595); test: Activity of serotonin receptors 5-HT2B, CHO cells; type: cell-based; settings: antagonist, serotonin agonist (30 nM)
T5 construct: expressed in transfected cells; host or cells: CHO cells
T5 sequence (P41595 whole entry): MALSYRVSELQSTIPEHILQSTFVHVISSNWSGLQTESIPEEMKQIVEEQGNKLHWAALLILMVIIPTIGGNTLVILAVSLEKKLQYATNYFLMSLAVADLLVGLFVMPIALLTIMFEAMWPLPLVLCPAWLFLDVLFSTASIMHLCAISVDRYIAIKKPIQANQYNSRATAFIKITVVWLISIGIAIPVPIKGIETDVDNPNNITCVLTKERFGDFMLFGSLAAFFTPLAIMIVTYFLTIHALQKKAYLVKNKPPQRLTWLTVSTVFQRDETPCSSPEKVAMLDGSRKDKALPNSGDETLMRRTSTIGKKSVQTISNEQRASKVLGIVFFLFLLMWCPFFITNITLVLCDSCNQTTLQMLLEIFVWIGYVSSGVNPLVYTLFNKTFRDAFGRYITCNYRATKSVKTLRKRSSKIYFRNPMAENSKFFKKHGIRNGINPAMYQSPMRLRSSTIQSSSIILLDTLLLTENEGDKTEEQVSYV
Procedure: Compound 1 was dissolved in DMSO to a concentration of 100 mM; then a stock solution was serially diluted with DMSO. The maximum starting concentration of the substance is 100 μM. The effect was determined at 5 concentrations of the tested compounds, each concentration was studied twice. CHO cells expressing serotonin receptors 5-HT2B were used in the experiment, these cells, after preincubation with a serotonin agonist (30 nM), were incubated with the test compound. The activity of receptors was determined according to the intracellular calcium concentration of phosphatidylinositol by the homogeneous time resolved fluorescence spectroscopy (Br J Pharmacol. 1999 September; 128(1):13-20).

O=C(Cc1ccc(O)cc1)N[C@@H](Cc1ccccc1)C(=O)OCc1ccccc1 [Compound 1, benzyl (2S)-2-[2-(4-hydroxyphenyl)acetamido]-3-phenylpropanoate]
hydrolysis in the blood plasma (in words) ([1]; blood plasma of mice, after 15 minutes): almost completely hydrolyzed
Content, % from the initial, Mean (n = 2) ([1]; 0 hour): 100%
Content, % from the initial, Mean (n = 2) ([1]; 0.25 hour): 0.00%
Content, % from the initial, Mean (n = 2) ([1]; 1 hour): 0.00%
Content, % from the initial, Mean (n = 2) ([1]; 2 hour): 0.00%
Content, % from the initial, Mean (n = 2) ([1]; 4 hour): 0.00%
Content, % from the initial, Mean (n = 2) ([1]; 8 hour): 0.00%
Content, % from the initial, Mean (n = 2) ([1]; 24 hour): 0.00%
hydrolysis in the blood plasma (in words) ([2]; blood plasma of guinea pigs, after 15 minutes): almost completely hydrolyzed
Content, % from the initial, Mean (n = 2) ([2]; 0 hour): 100%
Content, % from the initial, Mean (n = 2) ([2]; 0.25 hour): 0.00%
Content, % from the initial, Mean (n = 2) ([2]; 1 hour): 0.00%
Content, % from the initial, Mean (n = 2) ([2]; 2 hour): 0.00%
Content, % from the initial, Mean (n = 2) ([2]; 4 hour): 0.00%
Content, % from the initial, Mean (n = 2) ([2]; 8 hour): 0.00%
Content, % from the initial, Mean (n = 2) ([2]; 24 hour): 0.00%
The gain in the thickness of the right (affected) ear relatively day 0 ([3]; day 2): 14.1%
The gain in the thickness of the right (affected) ear relatively day 0 ([3]; day 4): 22.1%
The gain in the thickness of the right (affected) ear relatively day 0 ([3]; day 6): 28.0%
The gain in the thickness of the right (affected) ear relatively day 0 ([3]; day 8): 19.4%
The gain in the thickness of the right (affected) ear relatively day 0 ([3]; day 10): 7.9%
reduction of the gain in the thickness of the right (affected) ear (in words) ([3]; summary of table 1): to the level of intact animals
IC50 [4]: 7.6 µM
Content, % from the initial, Mean (n = 2) ([5]; 0 hour): 100%
Content, % from the initial, Mean (n = 2) ([5]; 0.25 hour): 92.6%
Content, % from the initial, Mean (n = 2) ([5]; 1 hour): 61.8%
Content, % from the initial, Mean (n = 2) ([5]; 2 hour): 35.9%
Content, % from the initial, Mean (n = 2) ([5]; 4 hour (so in the source)): 2.68%
Content, % from the initial, Mean (n = 2) ([5]; time cell empty (last line)): 0.15%
Content, % from the initial, Mean (n = 2) ([5]; time cell empty (line after 2 hour)): 15.9%
IC50 [6]: 6.7 µM
IC50 [7]: 5.7 µM
IC50 [8]: 3.3 µM
hydrolysis in the blood plasma (in words) ([9]; blood plasma of rabbits, after 15 minutes): almost completely hydrolyzed
Content, % from the initial, Mean (n = 2) ([9]; 0 hour): 100%
Content, % from the initial, Mean (n = 2) ([9]; 0.25 hour): 0.00%
Content, % from the initial, Mean (n = 2) ([9]; 1 hour): 0.00%
Content, % from the initial, Mean (n = 2) ([9]; 4 hour): 0.00%
IC50 [10]: 8.9 µM

— patent US11584709B2, “Multitarget drug for treating diseases in mammals” (“PHARMENTERPRISES EURASIA” LIMITED LIABILITY COMPANY, priority 2017, dated 2023)
